Measured values taken from ChEMBL document CHEMBL1143501, “Structure-activity relationship of the novel bivalent and C-terminal modified analogues of endomorphin-2” (Bioorg Med Chem Lett, 2005).
Starred links: 1 amine or outer side, 2 acyl side, 3 side chain; linkers in the order of their positions; H or OH if unused. Positions of bridges follow the written chain, without caps; N, C: chain ends. Residues, ends and D or L forms follow the SMILES beside them. Chains are numbered I, II in the order given. Ethylenediamine = C(CN[*:2])N[*:1]

How the values were obtained:
[1] = target: Mu-type opioid receptor (Cavia porcellus) (UniProt P97266); assay: In vitro potency of EM-2 was measured towards Opioid receptor mu 1 using guinea pig ileum assay; format: tissue-based
Mu-type opioid receptor (Cavia porcellus), sequence (P97266 whole entry): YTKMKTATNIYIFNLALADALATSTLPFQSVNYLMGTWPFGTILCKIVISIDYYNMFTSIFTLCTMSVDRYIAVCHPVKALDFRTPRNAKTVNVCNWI

[2] = target: Delta-type opioid receptor (Mus musculus) (UniProt P32300); assay: Ratio of IC50s against Opioid receptor delta 1 was measured in mouse vas deferens to that of guinea pig ileum; format: tissue-based
Delta-type opioid receptor (Mus musculus), sequence (P32300 whole entry): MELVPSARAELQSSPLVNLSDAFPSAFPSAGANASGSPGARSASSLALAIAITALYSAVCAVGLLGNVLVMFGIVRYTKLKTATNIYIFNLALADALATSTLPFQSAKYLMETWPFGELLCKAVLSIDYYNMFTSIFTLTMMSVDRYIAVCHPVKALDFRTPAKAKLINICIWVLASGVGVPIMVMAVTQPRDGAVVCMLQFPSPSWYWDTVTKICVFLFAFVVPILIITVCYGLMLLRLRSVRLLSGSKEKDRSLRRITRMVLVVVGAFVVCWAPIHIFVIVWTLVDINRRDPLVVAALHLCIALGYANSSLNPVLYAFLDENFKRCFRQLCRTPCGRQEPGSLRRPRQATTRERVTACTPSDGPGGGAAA

[3] = Selectivity for Opioid receptor mu 1 to that of Opioid receptor delta 1
[4] = target: Delta-type opioid receptor (Mus musculus) (UniProt P32300); assay: In vitro potency of EM-2 measured towards Opioid receptor delta 1 using mouse vas deferens assay; format: functional, tissue-based
[5] = target: Delta-type opioid receptor (Mus musculus) (UniProt P32300); assay: Relative potency of EM-2 measured towards Opioid receptor delta 1 assayed with [3H]DPDPE
[6] = target: Mu-type opioid receptor (Cavia porcellus) (UniProt P97266); assay: Relative potency of EM-2 measured towards Opioid receptor mu 1 assayed with [3H]DAMGO
[7] = target: Mu-type opioid receptor (Cavia porcellus, UniProt P97266); assay: In vitro inhibitory concentration against Opioid receptor mu 1 was measured using guinea pig ileum assay; format: tissue-based
Mu-type opioid receptor, sequence (P97266 whole entry): as the sequence (P97266 whole entry) above

[8] = Mean value of binding constant for Opioid receptors assayed with [3H]DAMGO
[9] = target: Delta-type opioid receptor (Mus musculus, UniProt P32300); assay: In vitro inhibitory concentration against Opioid receptor delta 1 was measured using mouse vas deferens assay
Delta-type opioid receptor, sequence (P32300 whole entry): as the sequence (P32300 whole entry) above

[10] = Mean value of binding constant for Opioid receptors assayed with [3H]DPDPE

Compound	Relative potency [1]	Ratio [2]	Selectivity [3]	Relative potency [4]	Relative potency [5]	Relative potency [6]	IC50 [7] [nM]	Ki [8] [nM]	IC50 [9] [nM]	Ki [10] [nM]
NC(=O)[C@H](Cc1ccccc1)NC(=O)[C@@H]1CCCN1C(=O)[C@H](Cc1ccc(O)cc1)NCCC(=O)[C@H](Cc1ccccc1)NC(=O)[C@@H]1CCCN1C(=O)[C@@H](N)Cc1ccc(O)cc1	0.067	4.64	35.4	0.048	9.06	0.32				
N[C@@H](Cc1ccc(O)cc1)C(=O)N1CCC[C@H]1C(=O)N[C@@H](Cc1ccccc1)C(=O)N[C@@H](Cc1ccccc1)C(=O)NNC(=O)[C@H](Cc1ccccc1)NC(=O)[C@H](Cc1ccccc1)NC(=O)[C@@H]1CCCN1C(=O)[C@@H](N)Cc1ccc(O)cc1							518	96.4	721	539
H-YPFYPF-NH2	0.013	2.82	61.8	0.015	4.41	0.27				
NC(=O)[C@H](Cc1ccccc1)NC(=O)[C@@H]1CCCN1C(=O)[C@@H](N)Cc1ccc(O)cc1 (H-Tyr-Pro-Phe-NH2)			> 71.4			0.059		140		> 10000
N[C@@H](Cc1ccc(O)cc1)C(=O)N1CCC[C@H]1C(=O)N[C@@H](Cc1ccccc1)C(=O)N[C@@H](Cc1ccccc1)C(=O)NCCCCNC(=O)[C@H](Cc1ccccc1)NC(=O)[C@H](Cc1ccccc1)NC(=O)[C@@H]1CCCN1C(=O)[C@@H](N)Cc1ccc(O)cc1								168	> 10000	7020
N[C@@H](Cc1ccc(O)cc1)C(=O)N1CCC[C@H]1C(=O)N[C@@H](Cc1ccccc1)C(=O)NNC(=O)[C@H](Cc1ccccc1)NC(=O)[C@@H]1CCCN1C(=O)[C@@H](N)Cc1ccc(O)cc1							1140	30.7	3200	1900
N[C@@H](Cc1ccc(O)cc1)C(=O)N1CCC[C@H]1C(=O)N[C@@H](Cc1ccccc1)C(=O)N[C@@H](Cc1ccccc1)C(=O)NCCNC(=O)[C@H](Cc1ccccc1)NC(=O)[C@H](Cc1ccccc1)NC(=O)[C@@H]1CCCN1C(=O)[C@@H](N)Cc1ccc(O)cc1							3540	86.3	29	613
COC(=O)[C@H](Cc1ccccc1)NC(=O)[C@H](Cc1ccccc1)NC(=O)[C@@H]1CCCN1C(=O)[C@@H](N)Cc1ccc(O)cc1	0.35	0.88	> 1110	1.3		0.91	42.1	9.07	37.2	> 10000
NNC(=O)[C@H](Cc1ccccc1)NC(=O)[C@H](Cc1ccccc1)NC(=O)[C@@H]1CCCN1C(=O)[C@@H](N)Cc1ccc(O)cc1	0.11	1.4	> 1070	0.26		0.88	132	9.35	185	> 10000
N[C@@H](Cc1ccc(O)cc1)C(=O)N1CCC[C@H]1C(=O)N[C@@H](Cc1ccccc1)C(=O)NCCNC(=O)[C@H](Cc1ccccc1)NC(=O)[C@@H]1CCCN1C(=O)[C@@H](N)Cc1ccc(O)cc1 (I: H-Tyr-Pro-Phe / II: H-Tyr-Pro-Phe; linker I:C-II:C via Ethylenediamine)							218	26.1	1010	923
